# Test results as given in patent publication US6071954A, “(methylsulfonyl)phenyl-2-(5H)-furanones with oxygen link as COX-2 inhibitors” (Merk Frosst Canada, Inc., priority 1998, dated 2000).
# Columns and labels:
# [1] = system: Rat Paw Edema; assay: Rat paw edema assay (carrageenan); assay type: in vivo, rat (male Sprague-Dawley); settings: po, 1 hr before carrageenan, paw volume 3 hr later
# Method: Male Sprague-Dawley rats (150-200 g) are fasted overnight and are given, po, either vehicle (1% methocel or 5% Tween 80) or a test compound. One hr later, a line is drawn using a permanent marker at the level above the ankle in one hind paw to define the area of the paw to be monitored. The paw volume (V0) is measured using a plethysmometer (Ugo-Basile, Italy) based on the principle of water displacement. The animals are then injected subplantarly with […] of 1% carrageenan solution in saline (FMC Corp, Maine) into the paw using an insulin syringe with a 25-gauge needle (i.e. […] carrageenan per paw). Three hr later, the paw volume (V3) is measured and the increases in paw volume (V3 -V0) are calculated. The animals are sacrificed by CO2 asphyxiation and the absence or presence of stomach lesions scored. Data is compared with the vehicle-control values and percent inhibition calculated. All treatment groups are coded to eliminate observer bias.
# [2] = molecular target: T1, COX-2 (Homo sapiens, UniProt P35354); assay: Whole cell assay for COX-2 using CHO transfected cell lines (CHO[hCOX-2]); assay type: cell-based; set-up: expressed in transfected cells; CHO[hCOX-2]; settings: CHO[hCOX-2] cells, PGE2 synthesis in response to arachidonic acid
# T1 sequence (P35354 18-604): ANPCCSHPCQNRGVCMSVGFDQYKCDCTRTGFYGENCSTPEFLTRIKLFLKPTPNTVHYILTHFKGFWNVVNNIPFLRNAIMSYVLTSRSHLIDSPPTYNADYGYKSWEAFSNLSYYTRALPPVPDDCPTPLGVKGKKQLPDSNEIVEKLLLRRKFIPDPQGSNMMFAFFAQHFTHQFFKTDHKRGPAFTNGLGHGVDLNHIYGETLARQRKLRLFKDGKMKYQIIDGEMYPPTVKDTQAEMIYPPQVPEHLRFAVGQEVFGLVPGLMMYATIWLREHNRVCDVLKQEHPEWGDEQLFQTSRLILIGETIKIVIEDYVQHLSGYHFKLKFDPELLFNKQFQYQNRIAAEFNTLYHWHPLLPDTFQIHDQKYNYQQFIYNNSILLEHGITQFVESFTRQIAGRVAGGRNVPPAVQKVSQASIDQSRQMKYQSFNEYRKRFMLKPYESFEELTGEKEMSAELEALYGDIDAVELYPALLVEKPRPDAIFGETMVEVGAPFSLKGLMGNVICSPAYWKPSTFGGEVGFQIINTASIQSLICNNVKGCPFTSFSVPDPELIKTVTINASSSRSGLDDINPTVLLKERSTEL
# Method: Compounds are tested as inhibitors of cyclooxygenase activity in whole cell cyclooxygenase assays. These assays measure prostaglandin E2 synthesis in response to arachidonic acid, using a radioimmunoassay. Cells used for these assays are chinese hamster ovary (CHO) cell lines which have been stably transfected with an eukaryotic expression vector […] containing either the human Cox-1 or Cox-2 CDNA's. U937 cell microsomes are also used to measure Cox-1 activity.
# Chinese hamster ovary (CHO) cell lines which have been stably transfected with an eukaryotic expression vector pCDNAIII containing either the human COX-1 or COX-2 cDNA's are used for the assay. These cell lines are referred to as CHO [hCOX-1] and CHO [hCOX-2], respectively. […] Drugs to be tested are dissolved in DMSO to 66.7-fold the highest test drug concentration. […] Cells (0.3×10^6 cells in 200 μl) are preincubated with 3 μl of the test drug or DMSO vehicle for 15 min at 37° C.
# In the assay, inhibition is determined by measuring the amount of prostaglandin E2 (PGE2) synthesized in the presence of arachidonic acid, cyclooxygenase-1 or cyclooxygenase-2 and a putative inhibitor.
# [3] = molecular target: T1, COX-2; assay: Human whole blood assay, COX-2 (LPS-induced PGE2 production); assay type: cell-based; set-up: incubation of human whole blood with LPS, which induces COX-2; endogenous in cells; host or cells: fresh heparinized whole blood of human volunteers, LPS-stimulated; settings: LPS-induced PGE2, 24 hours at 37° C, read-out: COX-2 (IC50) HWB
# Text: As well, platelets in whole blood contain a large amount of the COX-1 enzyme. Immediately following blood clotting, platelets are activated through a thrombin-mediated mechanism. This reaction results in the production of thromboxane B2 (TxB2) via activation of COX-1. Thus, the effect of test compounds on TxB2 levels following blood clotting can be examined and used as an index for COX-1 activity. Therefore, the degree of selectivity by the test compound can be determined by measuring the levels of PGE2 after LPS induction (COX-2) and TxB2 following blood clotting (COX-1) in the same assay. A. COX-2 (LPS-induced PGE2 production) Fresh blood is collected in heparinized tubes by venipuncture from both male and female volunteers. The subjects have no apparent inflammatory conditions and have not taken any NSAIDs for at least 7 days prior to blood collection. Plasma is immediately obtained from a 2 mL blood aliquot to use as blank (basal levels of PGE2). […] The supernatant is obtained and is assayed for PGE2 using a radioimmunoassay kit (Amersham, RPA#530) after conversion of PGE2 to its methyl oximate derivative according to the manufacturer's procedure.
SMILES,ED50 [1] [mg/kg],IC50 [2] [nM],IC50 [3] [nM]
CC1(C)OC(=O)C(OC2CCC(F)(F)CC2)=C1c1ccc(S(C)(=O)=O)cc1 [Example 17],0.9,–,–
C[C@H](O)[C@@H](C)OC1=C(c2ccc(S(C)(=O)=O)cc2)C(C)(C)OC1=O (relative stereo) [Example 4],–,600,900
"CC1(C)OC(=O)C(OC(C(F)(F)F)C(F)(F)F)=C1c1ccc(S(C)(=O)=O)cc1 [Example 2, 5,5-Dimethyl-3-(1,1,1,3,3,3-hexafluoropropoxy)-4-(4-methylsulfonylphenyl)-5H-furan-2-one]",1,–,–
